# Values quoted from earlier work as cited in patent publication US9476892B2, “Composition and method for measuring thallium influx and efflux” (priority 2007, dated 2016).
# Details: background statement, poorly soluble
smiles,measurement,value
[Cl][Tl] [thallium chloride],concentration at which thallium chloride precipitates out of solution,≥ 4500 µM
